Each block holds one molecule with its values, some of them ahead of it.
Legend:
[1] = biological target: Hb-S (Homo sapiens, UniProt P68871+P69905, E7V); assay: Oxygen-Affinity Assay (whole Hb-S blood); type: cell-based; conditions: 37° C.
Method: The compounds described herein were tested in an "Oxygen-Affinity Assay" to measure the ability of the compound to influence the Hb-S oxygen affinity. There is a relationship between oxygen binding and Hb-S gelation and thus a measure of oxygen affinity is an index of Hb-S aggregation within the red blood cell. Hemoglobin S polymers decrease the overall oxygen affinity. Thus a return to normal of Hb-S oxygen affinity is a measure of decreased gelation.
For measurements of oxygen equilibria whole Hb-S blood was equilibrated in a tonometer at 37° C. and measurements were made in the presence of a 10 millimolar (mM) concentration of the test compound. Some of the compounds were also tested at a 5 mM concentration. The whole blood pH, oxygen tension, and blood PO2 were measured.
The percentage of oxygen saturation was plotted against the partial pressure of oxygen (mm Hg). The P50 value (oxygen tension at 50% saturation) was determined for each control and treated whole blood sample and the difference (ΔP50) between the control and treated whole blood sample noted. As used herein, a negative ΔP50 represents a change toward a normal Hb-S oxygen affinity and thus is a measure of the test compound's ability to inhibit the sickling of sickle erythrocytes.

[2] = tested on: sickle erythrocytes (sickle cell blood); assay: Reverse Erythrocyte Morphology, deoxygenation induced sickling; type: cell-based, human
Method: (§1) Blood collected from individuals with homozygous sickle cell disease, as well as normal blood, was anticoagulated with ethylenediaminetetraacetic acid (EDTA) and refrigerated until used. To portions of the blood samples were added appropriate volumes of a solution of the compound to be tested so that final concentrations of 0.0125 molar (M), 0.025 M, 0.05 M or 0.1 M were obtained, and the mixtures were incubated at 37° C. for 30 minutes. The test compounds were dissolved in saline. Appropriate volumes of saline were added to the control samples. Urea in invert sugar (UIS) at 0.05 M to 1.5 M concentrations was used as an agent capable of transforming sickled cells into normal forms and was therefore used as a positive control.
(§2) Anoxic sickling (deoxygenation) was induced by exposing sickle blood to a hydrated 95% nitrogen, 5% carbon dioxide atmosphere for 60 minutes.
(§3) After the sickling stimulus, slides were prepared. A volume of 0.2 ml of sickled cells were fixed in 1.0 ml of 3.2% glutaraldehyde in 0.1 M cacodylic buffer. Wet slides were prepared and sealed.
(§4) The slides were scored for normal cells (Typ.), atypical cells (Atyp.) and sickled cells (Sickle) on the basis of counting 300 cells per slide.
(§5) The compound 2-((4-cyanophenoxy)methyl)-2-imidazoline p-toluenesulfonate (Example 2) was tested for its ability to reverse the sickling process by first applying the hereinabove noted sickling stimuli to the sickle cell blood and then adding the test compound to the red cell suspensions.

[3] = tested on: sickle erythrocytes (sickle cell blood); assay: Reverse Erythrocyte Morphology, chemically induced sickling (sodium metabisulfite); type: cell-based, human
Method: as §1
(§6) Sickling was induced chemically by reducing the blood samples with an equal volume of a 2% solution of sodium metabisulfite in phosphate-buffered saline for 30 minutes.
as §3, §4, §5

[4] = tested on: sickle erythrocytes (intact sickle cells); assay: Blockade Erythrocyte Morphology, chemically induced sickling (sodium metabisulfite); type: cell-based, human
Method: (§7) The compound 2-((4-cyanophenoxy)methyl)-2-imidazoline p-toluenesulfonate (Example 2) and 2-((3-cyanophenoxy)methyl)-2-imidazoline p-toluenesulfonate (Example 4) were tested for anti-sickling activity using a suspension of intact sickle cells as follows:
as §1, §6, §3, §4

[5] = Toxicity (LD50) in mice; conditions: mouse, in vivo, ip, intraperitoneal injection
[6] = tested on: sickle erythrocytes (intact sickle cells); assay: Blockade Erythrocyte Morphology, deoxygenation induced sickling; type: cell-based, human; conditions: for interference with deoxygenation induced sickling: Table 1
Method: as §7, §1, §2, §3, §4

[7] = biological target: T1, deoxyhemoglobin S (Deoxy Hb-S) (Homo sapiens, UniProt P68871+P69905, E7V); assay: Solubility of deoxyhemoglobin S (hemoglobin gelation); type: biochemical; conditions: 10 mM
T1 construct: native tetramer alpha2 betaS2
Method: The compound 2-((3-cyanophenoxy)methyl)-2-imidazoline p-toluenesulfonate was tested to determine its ability to inhibit sickle erythrocyte hemoglobin gelation as follows:
The solubility of deoxyhemoglobin S (Deoxy Hb-S) was determined utilizing substantially the same procedure described by Behe, M. J., Englander, S. W., Biochemistry 18: 4196-4201 (1979). Assays were done to determine the equilibrium solubility of Hb-S in the presence of inhibitor (i.e., test compound). […] Test mixtures were placed in a 4 centimeter (cm) length of thin quartz tubing sealed at one end, and then incubated at 37° C. for two hours to achieve gelation, and then re-equilibrated in a water bath (20° C.) for 20 minutes. The quartz tubing containing the test mixture was then placed in a glycerol filled centrifuge tube (topped by a rubber ring to center the quartz tubing) and centrifuged for two hours at 140,000 times gravity. […] The concentration of the hemoglobin in the supernatant was determined by measuring the absorbance at 540 nanometers (nm) after a 300-fold dilution with normally oxygenated buffer.
The Relative Solubility is a measure of the ability of the test compound to increase the solubility of deoxyhemoglobin S and is readily determined by comparing the solubility of the treated (i.e., test compound present) sample versus the control (i.e., test compound absent) sample.

[8] = over the ranges tested (0.025-0.1 M)
[9] = reverse, deoxygenation, 0.025 M, vs control
[10] = reverse, deoxygenation, 0.05 M, vs control
[11] = reverse, deoxygenation, 0.1 M, vs control
[12] = reverse, chemically induced, 0.025 M, vs control
[13] = reverse, chemically induced, 0.05 M
[14] = reverse, chemically induced, 0.05 M, vs control
[15] = reverse, chemically induced, 0.1 M
[16] = reverse, chemically induced, 0.1 M, vs control
[17] = Homo sapiens, Erythrocyte, deoxygenation, 0.025 M, vs control, read-out: Percent Change, Sickle (sickled cells)
[18] = Homo sapiens, Erythrocyte, deoxygenation, 0.05 M, vs control, read-out: Percent Change, Sickle (sickled cells)
[19] = deoxygenation, 0.025 M, vs control
[20] = deoxygenation, 0.05 M, vs control
[21] = deoxygenation, 0.1 M, vs control
[22] = deoxygenation, 0.0125 M, vs control

SMILES: O=[N+]([O-])c1cccc(OCC2=NCCN2)c1 [Example 1]
Δ P50 (oxygen tension at 50% saturation, difference control vs treated) ([1]; 5 mM): -2 mm Hg
Δ P50 (oxygen tension at 50% saturation, difference control vs treated) ([1]; 10 mM): -10.6 mm Hg

SMILES: Cc1ccc(S(=O)(=O)O)cc1.N#Cc1ccc(OCC2=NCCN2)cc1 [Example 2, 2-((4-Cyanophenoxy)methyl)-2-imidazoline p-Toluenesulfonate]
inhibition at 25000 µM ([2]; Homo sapiens, Erythrocyte, reverse, deoxygenation, 0.025 M, vs control, read-out: Percent Change, Sickle (sickled cells)): 47%
inhibition at 50000 µM ([2]; Homo sapiens, Erythrocyte, reverse, deoxygenation, 0.05 M, vs control, read-out: Percent Change, Sickle (sickled cells)): 46%
inhibition at 100000 µM ([2]; Homo sapiens, Erythrocyte, reverse, deoxygenation, 0.1 M, vs control, read-out: Percent Change, Sickle (sickled cells)): 41%
reversal of sickling induced by deoxygenation [2, 8]: effectively reversed sickling
Lysis ([2]; reverse, deoxygenation, 0.025 M): -
Percent Change, Atyp. (atypical cells) [2, 9]: -22%
Percent Change, Typ. (normal cells) [2, 9]: +133%
Lysis ([2]; reverse, deoxygenation, 0.05 M): -
Percent Change, Atyp. (atypical cells) [2, 10]: -26%
Percent Change, Typ. (normal cells) [2, 10]: +142%
Lysis ([2]; reverse, deoxygenation, 0.1 M): ± (the appearance of some cell lysis at that particular test compound concentration)
hemolysis (in words) ([2]; reverse, deoxygenation, 0.1 M): some hemolysis observed
Percent Change, Atyp. (atypical cells) [2, 11]: -46%
Percent Change, Typ. (normal cells) [2, 11]: +202%
inhibition at 25000 µM ([3]; Homo sapiens, Erythrocyte, reverse, chemically induced, 0.025 M, vs control, read-out: Percent Change, Sickle (sickled cells)): 27%
inhibition at 50000 µM ([3]; Homo sapiens, Erythrocyte, reverse, chemically induced, 0.05 M, vs control, read-out: Percent Change, Sickle (sickled cells)): 52%
inhibition at 100000 µM ([3]; Homo sapiens, Erythrocyte, reverse, chemically induced, 0.1 M, vs control, read-out: Percent Change, Sickle (sickled cells)): 48%
reversal of sickling induced chemically [3, 8]: effectively reversed sickling
Lysis ([3]; reverse, chemically induced, 0.025 M): -
Percent Change, Atyp. (atypical cells) [3, 12]: -49%
Percent Change, Typ. (normal cells) [3, 12]: +48%
Lysis [3, 13]: ± (the appearance of some cell lysis at that particular test compound concentration)
hemolysis (in words) [3, 13]: some hemolysis observed
Percent Change, Atyp. (atypical cells) [3, 14]: -73%
Percent Change, Typ. (normal cells) [3, 14]: +87%
Lysis [3, 15]: ± (the appearance of some cell lysis at that particular test compound concentration)
hemolysis (in words) [3, 15]: some hemolysis observed
Percent Change, Atyp. (atypical cells) [3, 16]: -96%
Percent Change, Typ. (normal cells) [3, 16]: +86%
sickling inhibitory effect in the chemically induced test system [4]: slightly sickling inhibitory effect
Lysis ([4]; 0.025 M): -
Percent Change, Atyp. (atypical cells) ([4]; 0.025 M, vs control): -14%
Percent Change, Typ. (normal cells) ([4]; 0.025 M, vs control): +56%
Lysis ([4]; 0.05 M): -
Percent Change, Atyp. (atypical cells) ([4]; 0.05 M, vs control): +138%
Percent Change, Typ. (normal cells) ([4]; 0.05 M, vs control): +84%
Lysis ([4]; 0.1 M): ± (the appearance of some cell lysis at that particular test compound concentration)
Percent Change, Atyp. (atypical cells) ([4]; 0.1 M, vs control): -63%
Percent Change, Typ. (normal cells) ([4]; 0.1 M, vs control): +78%
inhibition at 25000 µM ([4]; Homo sapiens, Erythrocyte, 0.5 h, 0.025 M, vs control, read-out: Percent Change, Sickle (sickled cells)): 27%
inhibition at 50000 µM ([4]; Homo sapiens, Erythrocyte, 0.5 h, 0.05 M, vs control, read-out: Percent Change, Sickle (sickled cells)): 29%
inhibition at 100000 µM ([4]; Homo sapiens, Erythrocyte, 0.5 h, 0.1 M, vs control, read-out: Percent Change, Sickle (sickled cells)): 32%
LD50 [5]: 316 mg/kg
inhibition at 25000 µM [6, 17]: 19%
inhibition at 50000 µM [6, 18]: 27%
inhibition at 100000 µM ([6]; Homo sapiens, Erythrocyte, deoxygenation, 0.1 M, vs control, read-out: Percent Change, Sickle (sickled cells)): 61%
interference with deoxygenation induced sickling [6]: interfered with deoxygenation induced sickling
Lysis ([6]; deoxygenation, 0.025 M): -
Percent Change, Atyp. (atypical cells) [6, 19]: -36%
Percent Change, Typ. (normal cells) [6, 19]: +86%
Lysis ([6]; deoxygenation, 0.05 M): -
cell lysis (in words) ([6]; deoxygenation, 0.05 M): without the appearance of cell lysis
Percent Change, Atyp. (atypical cells) [6, 20]: -36%
Percent Change, Typ. (normal cells) [6, 20]: +106%
Lysis ([6]; deoxygenation, 0.1 M): ± (the appearance of some cell lysis at that particular test compound concentration)
Percent Change, Atyp. (atypical cells) [6, 21]: -39%
Percent Change, Typ. (normal cells) [6, 21]: +170%
Δ P50 (oxygen tension at 50% saturation, difference control vs treated) ([1]; 10 mM): -9.1 mm Hg

Δ P50 (oxygen tension at 50% saturation, difference control vs treated) ([1]; 10 mM): -7.0 mm Hg
SMILES: CS(=O)(=O)c1ccc(OCC2=NCCN2)cc1.Cl [Example 3, 2-((4-(Methylsulfonyl)phenoxy)methyl)-2-imidazoline Hydrochloride]

SMILES: Cc1ccc(S(=O)(=O)O)cc1.N#Cc1cccc(OCC2=NCCN2)c1 [Example 4, 2-((3-cyanophenoxy)methyl)-2-imidazoline p-toluenesulfonate]
solubility of deoxyhemoglobin S (in words) [7]: increased
inhibition at 12500 µM ([6]; Homo sapiens, Erythrocyte, deoxygenation, 0.0125 M, vs control, read-out: Percent Change, Sickle (sickled cells)): 33%
inhibition at 25000 µM [6, 17]: 69%
inhibition at 50000 µM [6, 18]: 77%
interference with deoxygenation induced sickling [6]: interfered with deoxygenation induced sickling
Lysis ([6]; deoxygenation, 0.0125 M): -
Percent Change, Atyp. (atypical cells) [6, 22]: -65%
Percent Change, Typ. (normal cells) [6, 22]: +201%
Lysis ([6]; deoxygenation, 0.025 M): -
Percent Change, Atyp. (atypical cells) [6, 19]: -78%
Percent Change, Typ. (normal cells) [6, 19]: +316%
Lysis ([6]; deoxygenation, 0.05 M): -
cell lysis (in words) ([6]; deoxygenation, 0.05 M): without the appearance of cell lysis
Percent Change, Atyp. (atypical cells) [6, 20]: -74%
Percent Change, Typ. (normal cells) [6, 20]: +407%
Δ P50 (oxygen tension at 50% saturation, difference control vs treated) ([1]; 5 mM): -1 mm Hg
Δ P50 (oxygen tension at 50% saturation, difference control vs treated) ([1]; 10 mM): -13.7 mm Hg

SMILES: CSc1ccc(OCC2=NCCN2)cc1C [Example 5, 2-((4-(Methylthio)-m-tolyloxy)methyl)-2-imidazoline]
Δ P50 (oxygen tension at 50% saturation, difference control vs treated) ([1]; 5 mM): -11 mm Hg
Δ P50 (oxygen tension at 50% saturation, difference control vs treated) ([1]; 10 mM): -14.7 mm Hg

Δ P50 (oxygen tension at 50% saturation, difference control vs treated) ([1]; 10 mM): -4.3 mm Hg
SMILES: Cl.FC(F)(F)c1cccc(NCC2=NCCN2)c1 [Example 6, 2-((3-Trifluoromethylanilino)methyl)-2-imidazoline Hydrochloride]

SMILES: Cl.FC(F)(F)c1cccc(OCC2=NCCN2)c1 [Example 7, 2-(3-Trifluoromethylphenoxy)methyl-2-imidazoline Hydrochloride]
Δ P50 (oxygen tension at 50% saturation, difference control vs treated) ([1]; 10 mM): -3.0 mm Hg

SMILES: Cl.c1ccc(OCC2=NCCN2)cc1 [Example 8, 2-(Phenoxymethyl)-2-imidazoline Hydrochloride]
Δ P50 (oxygen tension at 50% saturation, difference control vs treated) ([1]; 10 mM): -5.0 mm Hg
